Consider two compounds from PMC3835519 (Aquatic toxicology (Amsterdam, Netherlands), 2012).

The structures appear in SMILES notation. Read-outs that look alike come from different tables or passages of the source.

Data set [1] is classed as in vitro ADME, Mus musculus.
Data set [2] is classed as in vitro ADME, Pimephales promelas. The settings on record: all three fathead minnow subcellular fractions; significant = three times the background.
Data set [3] deals with purified porcine esterases. The settings on record: ref Roberts et al., 2011a, b; cited from earlier work.
Data set [4] is classed as in vitro ADME, Chelydra serpentina serpentina. The settings on record: snapping turtle S9; 120 min; 1 mg protein.
Data set [5] is classed as in vitro ADME, Cyprinus carpio. As to conditions: S9 of smaller (likely younger, juvenile) carp population; mean ± SD, N = 3.

Consider `COC(=O)c1cc(Br)c(Br)c(Br)c1Br` [TBMB, 2,3,4,5-tetrabromomethylbenzoate], for which the “TBMB metabolite peaks in chromatograms of incubations” value in data set [1] (mouse incubations, significant = three times the background) was “not significant”; in data set [2], “Significant peaks”.

As to `CCCCC(CC)COC(=O)c1cc(Br)c(Br)c(Br)c1Br` (stereo not drawn) [TBB, 2-ethylhexyl 2,3,4,5-tetrabromobenzoate], in data set [3], the metabolism by esterases result is on record as “rapidly metabolize”. Besides, the “metabolism of TBB (loss of parent vs heat-inactivated control)” value in data set [4] is given as “not metabolized”. Besides, in data set [1] (S9, 4-month-old vs 2-month-old male mice), the “difference in TBB metabolism between age classes” value is “No difference”. For the same compound, the “metabolic rate of TBB” value in data set [5] is 1.30 ± 0.62 pmoles TBB mg^−1 min^−1.
